Results: patent publication US20240158446A1, “CYCLIC COMPOUND HAVING SELECTIVE INHIBITORY ACTION ON KRAS OVER HRAS AND NRAS” (CHUGAI SEIYAKU KABUSHIKI KAISHA, priority 2021, published 2024)
pKd: −log10 of the molar value. Read-outs that look alike come from different tables or passages of the source. *1 amine or outer side, *2 acyl side, *3 side chain or, on linkers, in order; H or OH if unused. Where a SMILES comes first, the peptide text is derived from it. Bridges are numbered along the chain shown (N, C = ends). [ ]: non-standard residue; d: D form. The star is where a group is joined. hPhe(3,5-F2-4-CF3) = N[C@@H](CCc1cc(F)c(C(F)(F)F)c(F)c1)C(=O)O; hPhe(3-Cl-4-CF3) = N[C@@H](CCc1ccc(C(F)(F)F)c(Cl)c1)C(=O)O; NPrPhe(4-CF3) = CCCN[C@@H](Cc1ccc(C(F)(F)F)cc1)C(=O)O; X28 = COCCCN([C@@H](Cc1ccc(C)cc1)C(=O)[*:2])[*:1]; X43 = CCCN([C@@H](Cc1ccccc1)C(=O)[*:2])[*:1]; NMeGly(cPent) = CN[C@H](C(=O)O)C1CCCC1; αMeF = C[C@](N)(Cc1ccccc1)C(=O)O; NMeD = CN[C@@H](CC(=O)O)C(=O)O; NMeL = CN[C@@H](CC(C)C)C(=O)O; Morpholide = C1CN(*)CCO1; NMeA = CN[C@@H](C)C(=O)O; Ac5c = NC1(C(=O)O)CCCC1; Aze = O=C(O)[C@@H]1CCN1; Ac4c = NC1(C(=O)O)CCC1; Sar = CNCC(=O)O

Assays:
[1] = biological target: GDP-bound HRAS wild-type protein (Homo sapiens, UniProt P01112); assay: Binding to HRAS by surface plasmon resonance (SPR), Single Cycle Kinetics; details: SPR, GDP-bound HRAS wild-type protein vs GDP-bound KRAS wild-type protein
[2] = biological target: GDP-bound KRAS wild-type protein (Homo sapiens, UniProt P01116); assay: Binding to KRAS by surface plasmon resonance (SPR), Single Cycle Kinetics; details: GDP-bound KRAS wild-type protein, read-out: KRAS KD
[3] = biological target: GDP-bound NRAS wild-type protein (Homo sapiens, UniProt P01111); assay: Binding to NRAS by surface plasmon resonance (SPR), Single Cycle Kinetics; details: SPR, GDP-bound NRAS wild-type protein vs GDP-bound KRAS wild-type protein
[4] = SPR Single Cycle Kinetics, 1:1 binding model

GDP-bound KRAS wild-type protein, sequence (P01116 whole entry): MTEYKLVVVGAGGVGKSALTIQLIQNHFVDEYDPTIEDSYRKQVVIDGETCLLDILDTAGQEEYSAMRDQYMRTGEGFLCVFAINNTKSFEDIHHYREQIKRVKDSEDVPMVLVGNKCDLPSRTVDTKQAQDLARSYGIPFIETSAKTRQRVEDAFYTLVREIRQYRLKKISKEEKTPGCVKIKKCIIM
GDP-bound NRAS wild-type protein, sequence (P01111 whole entry): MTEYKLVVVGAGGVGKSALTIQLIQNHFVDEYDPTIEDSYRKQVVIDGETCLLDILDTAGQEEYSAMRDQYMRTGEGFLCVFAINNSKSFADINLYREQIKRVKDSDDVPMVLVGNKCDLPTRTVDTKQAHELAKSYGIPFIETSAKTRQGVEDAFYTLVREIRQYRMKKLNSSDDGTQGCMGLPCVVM
GDP-bound HRAS wild-type protein, sequence (P01112 whole entry): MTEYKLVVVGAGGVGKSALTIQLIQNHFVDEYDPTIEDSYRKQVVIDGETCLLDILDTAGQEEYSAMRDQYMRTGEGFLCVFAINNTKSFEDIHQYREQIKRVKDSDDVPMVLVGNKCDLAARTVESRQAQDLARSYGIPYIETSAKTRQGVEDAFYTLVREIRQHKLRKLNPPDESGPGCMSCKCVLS

SMILES | pKd [2, 4] | pKd ([2]; SPR, Single Cycle Kinetics) | HRAS/KRAS (ratio of KD value for HRAS to KD value for KRAS) [1] | NRAS/KRAS (ratio of KD value for NRAS to KD value for KRAS) [3] | HRAS/KRAS (ratio of KD value with respect to HRAS to KD value with respect to KRAS) [1] | NRAS/KRAS (ratio of KD value with respect to NRAS to KD value with respect to KRAS) [3]
CC[C@H](C)[C@@H]1NC(=O)[C@H](CC(C)C)N(C)C(=O)C[C@@H](C(=O)N2CCOCC2)N(C)C(=O)[C@H](C2CCCC2)N(C)C(=O)C2(CCCC2)NC(=O)[C@@H]2CCCN2C(=O)[C@H](CCc2ccc(C(F)(F)F)c(Cl)c2)NC(=O)CN(C)C(=O)[C@H](Cc2ccc(C)cc2)N(CCCOC)C(=O)CN(C)C(=O)CN(C)C1=O [PP0105] ([NMeL]I[Sar][Sar][X28][Sar][hPhe(3-Cl-4-CF3)]P[Ac5c][NMeGly(cPent)][NMeD]-Morpholide; lactam N-11) | 9.85 |  | C (A compound having a KD ratio of 0.1 or more and less than 3 is denoted as C) | B (a compound having 3 or more and less than 10 is denoted as B) |  | 
CCO[C@@H]1C[C@H]2C(=O)NC3(CCC3)C(=O)N(C)[C@@H](C3CCCC3)C(=O)N(C)[C@H](C(=O)N3CCOCC3)CC(=O)N(C)[C@@H](Cc3ccc(F)c(F)c3)C(=O)N[C@@H]([C@@H](C)CC)C(=O)N(C)CC(=O)N(C)[C@H]3CCCCCN(C3=O)[C@@H](Cc3ccc(C(F)(F)F)cc3)C(=O)N(C)CC(=O)N[C@@H](CCc3cc(F)c(C(F)(F)F)c(F)c3)C(=O)N2C1 [PP0928] |  | 9.00 | B (a compound having 3 or more and less than 10 is denoted as B) | A (a compound having 10 or more and less than 20 is denoted as A) |  | 
CCCN1C(=O)CN(C)C(=O)CN(C)C(=O)[C@H]([C@@H](C)CC)NC(=O)[C@H](CC(C)C)N(C)C(=O)C[C@@H](C(=O)N2CCOCC2)N(C)C(=O)[C@H](C2CCCC2)N(C)C(=O)C2(CCCC2)NC(=O)[C@@H]2CCCN2C(=O)[C@H](CCc2ccc(C(F)(F)F)c(Cl)c2)NC(=O)CN(C)C(=O)[C@@H]1Cc1ccccc1 [PP0211] ([NMeL]I[Sar][Sar][X43][Sar][hPhe(3-Cl-4-CF3)]P[Ac5c][NMeGly(cPent)][NMeD]-Morpholide; lactam N-11) | 9.57 |  | C (A compound having a KD ratio of 0.1 or more and less than 3 is denoted as C) | B (a compound having 3 or more and less than 10 is denoted as B) |  | 
CCCN1C(=O)[C@@H]2CCN2C(=O)[C@H](C)N(C)C(=O)[C@H]([C@@H](C)CC)NC(=O)[C@H](CC(C)C)N(C)C(=O)C[C@@H](C(=O)N2CCOCC2)NC(=O)[C@H](C2CCCC2)N(C)C(=O)C2(CCCC2)NC(=O)[C@@H]2CCCN2C(=O)[C@H](CCc2ccc(C(F)(F)F)c(Cl)c2)NC(=O)CN(C)C(=O)[C@@H]1Cc1ccc(C(F)(F)F)cc1 [PP0343] ([NMeL]I[NMeA][Aze][NPrPhe(4-CF3)][Sar][hPhe(3-Cl-4-CF3)]P[Ac5c][NMeGly(cPent)]D-Morpholide; lactam N-11) | 8.89 |  | B (a compound having 3 or more and less than 10 is denoted as B) | C (A compound having a KD ratio of 0.1 or more and less than 3 is denoted as C) |  | 
CCCN1C(=O)CN(C)C(=O)CN(C)C(=O)[C@H]([C@@H](C)CC)NC(=O)[C@H](CC(C)C)N(C)C(=O)C[C@@H](C(=O)N(C)C)NC(=O)[C@H](C2CCCC2)N(C)C(=O)C2(CCC2)NC(=O)[C@@H]2CCCN2C(=O)[C@H](CCc2ccc(C(F)(F)F)c(Cl)c2)NC(=O)CN(C)C(=O)[C@@H]1Cc1ccc(C(F)(F)F)cc1 [PP0356] ([NMeL]I[Sar][Sar][NPrPhe(4-CF3)][Sar][hPhe(3-Cl-4-CF3)]P[Ac4c][NMeGly(cPent)]D-NMe2; lactam N-11) | 9.31 |  | B (a compound having 3 or more and less than 10 is denoted as B) | B (a compound having 3 or more and less than 10 is denoted as B) |  | 

Further lines, with some results ahead:

pKd [2, 4] | pKd ([2]; SPR, Single Cycle Kinetics) | SMILES | HRAS/KRAS (ratio of KD value for HRAS to KD value for KRAS) [1] | NRAS/KRAS (ratio of KD value for NRAS to KD value for KRAS) [3] | HRAS/KRAS (ratio of KD value with respect to HRAS to KD value with respect to KRAS) [1] | NRAS/KRAS (ratio of KD value with respect to NRAS to KD value with respect to KRAS) [3]
 | 10.24 | CC[C@H](C)[C@@H]1NC(=O)[C@H](CC(C)C)N(C)C(=O)C[C@@H](C(=O)N2CCOCC2)N(C)C(=O)[C@H](C2CCCC2)N(C)C(=O)C2(CCC2)NC(=O)[C@@H]2[C@H](O)CCN2C(=O)[C@H](CCc2cc(F)c(C(F)(F)F)c(F)c2)NC(=O)CN(C)C(=O)[C@H](Cc2ccc(C(F)(F)F)cc2)N2CCCC[C@@H](C2=O)N(C)C(=O)CN(C)C1=O [PP0870] | B (a compound having 3 or more and less than 10 is denoted as B) | B (a compound having 3 or more and less than 10 is denoted as B) |  | 
 | 9.92 | CCO[C@@H]1C[C@H]2C(=O)NC3(CCC3)C(=O)N(C)[C@@H](C3CCCC3)C(=O)N3CCC[C@@H]3CC(=O)N(C)[C@@H](CC)C(=O)N[C@@H]([C@@H](C)CC)C(=O)N(C)CC(=O)N(C)[C@H]3C/C=C\CCN(C3=O)[C@@H](Cc3ccc(C(F)(F)F)cc3)C(=O)N(C)CC(=O)N[C@@H](CCc3cc(F)c(C(F)(F)F)c(F)c3)C(=O)N2C1 [PP1097, (2S,8S,12R,14S,20S,26R,30S,33S,39S,41Z)-20-cyclopentyl-8-[2-[3,5-difluoro-4-(trifluoromethyl)phenyl]ethyl]-12-ethoxy-30-ethyl-4,19,29,35,38-pentamethyl-33-[(1 S)-1-methylpropyl]-2-[[4-(trifluoromethyl)phenyl]methyl]spiro[1,4,7,10,16,19,22,29,32,35,38-undecazatetracyclo[37.5.1.0^10,14.022,26]pentatetracont-41-ene-17,1′-cyclobutane]-3,6,9,15,18,21,28,31,34,37,45-undecone] | B (a compound having 3 or more and less than 10 is denoted as B) | B (a compound having 3 or more and less than 10 is denoted as B) |  | 
9.33 |  | CCCN1C(=O)CN(C)C(=O)CN(C)C(=O)[C@H]([C@@H](C)CC)NC(=O)[C@H](CC(C)C)N(C)C(=O)C[C@@H](C(=O)N(C)C)N(C)C(=O)[C@H](C2CCCC2)N(C)C(=O)[C@](C)(Cc2ccccc2)NC(=O)[C@@H]2CCCN2C(=O)[C@H](CCc2cc(F)c(C(F)(F)F)c(F)c2)NC(=O)CN(C)C(=O)[C@@H]1Cc1ccc(C(F)(F)F)cc1 [PP0740] ([NMeL]I[Sar][Sar][NPrPhe(4-CF3)][Sar][hPhe(3,5-F2-4-CF3)]P[αMeF][NMeGly(cPent)][NMeD]-NMe2; lactam N-11) |  |  | C (A compound having a KD ratio of 0.1 or more and less than 3 is denoted as C) | B (a compound having 3 or more and less than 10 is denoted as B)
 | 9.44 | CCC[C@H]1C(=O)N[C@@H](C2CCCCC2)C(=O)N(C)CC(=O)N(C)[C@H]2C/C=C\CCN(C2=O)[C@@H](Cc2ccc(C(F)(F)F)cc2)C(=O)N(C)CC(=O)N[C@@H](CCc2ccc(C(F)(F)F)c(Cl)c2)C(=O)N2C[C@H](OCC)C[C@H]2C(=O)NC2(CC(C)(C)C2)C(=O)N(C)[C@@H](C2CCCC2)C(=O)N(C)[C@H](C(=O)N(C)C)CC(=O)N1C [PP2996] | A (a compound having 10 or more and less than 20 is denoted as A) | AA (a compound having 20 or more is denoted as AA) |  | 
 | 9.68 | CCCOC[C@H]1C(=O)N[C@@H]([C@@H](C)CC)C(=O)N(C)CC(=O)N(C)[C@H]2C/C=C\CCN(C2=O)[C@@H](Cc2ccc(C(F)(F)F)cc2)C(=O)N(C)CC(=O)N[C@@H](CCc2cc(F)c(C(F)(F)F)c(F)c2)C(=O)N2C[C@@H](C)C[C@H]2C(=O)NC2(CC(C)(C)C2)C(=O)N(C)[C@@H](C2CCCC2)C(=O)N(C)[C@H](C(=O)N(C)CC)CC(=O)N1C [PP2043] | A (a compound having 10 or more and less than 20 is denoted as A) | A (a compound having 10 or more and less than 20 is denoted as A) |  | 
